Reference: patent publication US9427428B2, “Benzimidazole-imidazole derivatives” (Janssen Sciences Ireland UC, priority 2009, dated 2016)

Key:
[1] = test system: HCV genotype 1b replicon NS5A Y93H; assay: Transient HCV 1b replicon, NS5A mutant Y93H; type: cell-based; conditions: Hepatitis C virus, read-out: EC50 Y93H
Description: (§1) In a transient set-up, a Huh-7 lunet hepatoma cell line was transiently transfected with an autonomously replicating RNA encoding a bi-cistronic expression construct. This construct comprises a firefly luciferase reporter gene preceding the NS3-NS5B subgenomic region of HCV (genotype 1a H77 or 1b Con1). Translation of the HCV subgenomic region is mediated by an internal ribosome entry site of encephalomyocarditis virus. The construct is furthermore flanked by 5′ and 3′ untranslated regions of HCV (genotype 1a H77 or 1b Con 1, respectively), which allow for replication of the RNA.
(§2) In addition to the wild-type constructs, site-directed mutations were introduced into the transient HCV genotype 1b replicon in the gene encoding for the non-structural protein 5A (NS5A). More precisely, amino acid residues 28, 30, 31 and 93 in NS5A were independently altered.
(§3) Cells were plated in 384 well plates in the presence of test and control compounds, which were added in various concentrations. Following an incubation of two days, replication of the HCV subgenomic replicon RNA was measured by assaying luciferase activity (using standard luciferase assay substrates and reagents and a Perkin Elmer ViewLux™ ultraHTS microplate imager). HCV subgenomic replicon containing cells in the control cultures have high luciferase expression in the absence of any inhibitor. The inhibitory activity of the compound was monitored, enabling a dose-response curve for each test compound. EC50 values were then calculated, which represent the amount of compound required to decrease the level of detected luciferase activity by 50%, or more specifically, to reduce the ability of the genetically linked HCV subgenomic RNA to replicate.

[2] = Counterscreen Huh7-CMV-Luc; type: cell-based; conditions: human
Description: (§4) Counterscreen cell lines included a Huh-7 hepatoma cell line containing a human cytomegalovirus major immediate-early promoter-Luc construct (Huh7-CMV-Luc) and an MT4 T-cell line containing a long terminal repeat-Luc reporter (MT4-LTR-Luc).

[3] = test system: HCV genotype 1b Con1 replicon (Huh-7 lunet cells); assay: HCV replicon assay, transient transfection, genotype 1b; type: cell-based; conditions: Hepatitis C virus, 48 h, genotype 1b Con1, two days incubation, luciferase
Description: as §1, §3
(§5) Where a compound of formula (I) was tested more than once in the transient replicon assay, the average of all test results is given in Table 3.

[4] = Counterscreen MT4-LTR-Luc; type: cell-based; conditions: human
Description: as §4

[5] = test system: HCV genotype 1a H77 replicon (Huh-7 lunet cells); assay: HCV replicon assay, transient transfection, genotype 1a; type: cell-based; conditions: Hepatitis C virus, 48 h, genotype 1a H77, two days incubation, luciferase
Description: as §1, §3, §5

[6] = test system: HCV type 1b replicon (Huh-7 luc/neo cells); assay: HCV replicon assay, stable transfection (Huh-Luc, luciferase); type: cell-based; conditions: Hepatitis C virus, Huh-7, 72 h, three days incubation, average of all tests
Description: The compounds of formula (I) were examined for inhibitory activity in the HCV replicon. This cellular assay is based on a bicistronic expression construct, as described by Lohmann et al. (Science (1999) 285: 110-113; Journal of Virology (2003) 77: 3007-3019) with modifications described by Krieger et al. (Journal of Virology (2001) 75: 4614-4624), and Lohmann et al. (Journal of Virology (2003) 77: 3007-3019) for genotype 1b and by Yi et al. (Journal of Virology (2004) 78: 7904-7915) for genotype 1a, in a multi-target screening strategy.
The method was as follows. The assay utilized the stably transfected cell line Huh-7 luc/neo (hereafter referred to as Huh-Luc). This cell line harbors an RNA encoding a bicistronic expression construct comprising the wild type NS3-NS5B regions of HCV type 1b translated from an Internal Ribosome Entry Site (IRES) from encephalomyocarditis virus (EMCV), preceded by a reporter portion (FfL-luciferase), and a selectable marker portion (neoR, neomycine phosphotransferase). The construct is flanked by 5′ and 3′ NTRs (non-translated regions) from HCV type 1b. Continued culture of the replicon cells in the presence of G418 (neoR) is dependent on the replication of the HCV RNA. The stably transfected replicon cells that replicate HCV RNA autonomously and to high levels, encoding inter alia luciferase, were used for screening the antiviral compounds.
The replicon cells were plated in 384 well plates in the presence of the test and control compounds which were added in various concentrations. Following an incubation of three days, HCV replication was measured by assaying luciferase activity (using standard luciferase assay substrates and reagents and a Perkin Elmer ViewLux™ ultraHTS microplate imager). Replicon cells in the control cultures have high luciferase expression in the absence of any inhibitor. The inhibitory activity of the compound was monitored on the Huh-Luc cells, enabling a dose-response curve for each test compound. EC50 values were then calculated, which represent the amount of compound required to decrease the level of detected luciferase activity by 50%, or more specifically, to reduce the ability of the genetically linked HCV replicon RNA to replicate.
Where a compound of formula (I) was tested more than once in the replicon assay, the average of all test results is given in this Table 2.

[7] = test system: HCV genotype 1b replicon NS5A L31F; assay: Transient HCV 1b replicon, NS5A mutant L31F; type: cell-based; conditions: Hepatitis C virus, read-out: EC50 L31F
Description: as §1, §2, §3

[8] = test system: HCV genotype 1b replicon NS5A Y93C; assay: Transient HCV 1b replicon, NS5A mutant Y93C; type: cell-based; conditions: Hepatitis C virus, read-out: EC50 Y93C
Description: as §1, §2, §3

[9] = test system: HCV genotype 1b replicon NS5A L31V; assay: Transient HCV 1b replicon, NS5A mutant L31V; type: cell-based; conditions: Hepatitis C virus, read-out: EC50 L31V
Description: as §1, §2, §3

[10] = test system: HCV genotype 1b replicon NS5A R30H; assay: Transient HCV 1b replicon, NS5A mutant R30H; type: cell-based; conditions: Hepatitis C virus, read-out: EC50 R30H
Description: as §1, §2, §3

[11] = test system: HCV genotype 1b replicon NS5A L28T; assay: Transient HCV 1b replicon, NS5A mutant L28T; type: cell-based; conditions: Hepatitis C virus, read-out: EC50 L28T
Description: as §1, §2, §3

[12] = Pharmacokinetic analysis after single oral administration, liver concentration; type: in vivo; conditions: male Sprague-Dawley rats, 10 mg/kg oral, solution in PEG400
Description: Compounds were dosed orally as a solution in PEG400 to male Sprague-Dawley rats at a dose level of 10 mg/kg. At serial time points, after dosing, the animals were sacrificed and liver samples collected. All samples were analyzed using a qualified research LC-MS/MS method to determine the concentration of the tested compounds in liver. Non-compartmental analysis using the lin/log trapezoidal rule was performed using WinNonlin™ Professional (Version 5.2.1).

[13] = test system: HCV genotype 1b replicon NS5A L31M; assay: Transient HCV 1b replicon, NS5A mutant L31M; type: cell-based; conditions: Hepatitis C virus, read-out: EC50 L31M
Description: as §1, §2, §3

SMILES	EC50 [1] [nM]	CC50 [2] [nM]	EC50 [3] [nM]	CC50 [4] [nM]	EC50 [5] [nM]	EC50 [6] [nM]	EC50 [7] [nM]	EC50 [8] [nM]	EC50 [9] [nM]	EC50 [10] [nM]	EC50 [11] [nM]	Liver AUC [12] [ng·h/g]	EC50 [13] [nM]
COC(=O)NC(C(=O)N1CCC[C@H]1c1ncc(-c2ccc3cc(-c4ccc5nc([C@@H]6CCCN6C(=O)C(NC(=O)OC)C6CCOCC6)[nH]c5c4)ccc3c2)[nH]1)C1CCOCC1 (mixture of isomers) [Compound 12]	0.275	> 984	0.11	> 984	0.268	0.08							
COC(=O)NC(C(=O)N1CCC[C@H]1c1ncc(-c2ccc3cc(-c4ccc5nc([C@@H]6CCCN6C(=O)C(NC(=O)OC)c6ccccc6)[nH]c5c4)ccc3c2)[nH]1)c1ccccc1 (mixture of isomers) [Compound 14]	0.093	> 984	0.004	> 984	0.836	0.004							
COC(=O)N[C@H](C(=O)N1CCC[C@H]1c1ncc(-c2ccc(-c3ccc4nc([C@@H]5CCCN5C(=O)[C@@H](NC(=O)OC)C(C)C)[nH]c4c3)cc2)[nH]1)C(C)C [Compound 1]	1.33		0.058	> 984		0.058	0.775	0.076	1.06	0.6	4.12		
COC(=O)N[C@H](C(=O)N1CCC[C@H]1c1ncc(-c2ccc(-c3ccc4nc([C@@H]5CCCN5C(=O)[C@@H](NC(=O)OC)[C@@H](C)OC)[nH]c4c3)cc2)[nH]1)[C@@H](C)OC [Compound 2]	2.88	> 984	0.909	> 984		0.54	1.81	0.655	1.38	2.69	9.05		
COC(=O)N[C@H](C(=O)N1CCC[C@H]1c1ncc(-c2ccc3cc(-c4ccc5nc([C@@H]6CCCN6C(=O)[C@@H](NC(=O)OC)C(C)C)[nH]c5c4)ccc3c2)[nH]1)C(C)C [Compound 3]	0.47	7640	0.008	5820	0.051	0.007	0.032	0.012	0.504	0.072	0.229	23157	0.184
COC(=O)N[C@H](C(=O)N1CCC[C@H]1c1ncc(-c2ccc3cc(-c4ccc5nc([C@@H]6CCCN6C(=O)[C@@H](NC(=O)OC)[C@@H](C)OC)[nH]c5c4)ccc3c2)[nH]1)[C@@H](C)OC [Compound 4]	0.034	> 984	0.016	> 984	0.033	0.012	0.02	0.013	0.048	0.056	0.052	1539	0.052
COC(=O)N[C@H](C(=O)N1CCC[C@H]1c1ncc(-c2ccc3cc(-c4ccc5nc([C@@H]6CCCN6C(=O)[C@@H](NC(=O)OC)C6CC6)[nH]c5c4)ccc3c2)[nH]1)C1CC1 [Compound 5]	10.8	> 984	0.058	> 984		0.039							
COC(=O)N[C@H](C(=O)N1CCC[C@H]1c1ncc(-c2ccc3cc(-c4ccc5nc([C@@H]6CCCN6C(=O)[C@@H](NC(=O)OC)[C@@H](C)O)[nH]c5c4)ccc3c2)[nH]1)[C@@H](C)O [Compound 6]	1.01	> 984	0.142	> 984	0.181	0.132							
COC(=O)N[C@@H](CC(C)C)C(=O)N1CCC[C@H]1c1ncc(-c2ccc3cc(-c4ccc5nc([C@@H]6CCCN6C(=O)[C@H](CC(C)C)NC(=O)OC)[nH]c5c4)ccc3c2)[nH]1 [Compound 7]	3.41	> 984	0.003	> 984	0.989	0.005							
COCC[C@H](NC(=O)OC)C(=O)N1CCC[C@H]1c1ncc(-c2ccc3cc(-c4ccc5nc([C@@H]6CCCN6C(=O)[C@H](CCOC)NC(=O)OC)[nH]c5c4)ccc3c2)[nH]1 [Compound 10]	1.03	> 984	0.057	> 984		0.029							
COC(=O)N[C@H](C(=O)N1CCC[C@H]1c1ncc(-c2ccc3cc(-c4ccc5nc([C@@H]6CCCN6C(=O)[C@@H](NC(=O)OC)C6CCCC6)[nH]c5c4)ccc3c2)[nH]1)C1CCCC1 [Compound 15]	1.19	> 984	0.003	> 984	0.277	0.003							
CC[C@@H](C)[C@H](NC(=O)OC)C(=O)N1CCC[C@H]1c1ncc(-c2ccc3cc(-c4ccc5nc([C@@H]6CCCN6C(=O)[C@@H](NC(=O)OC)[C@H](C)CC)[nH]c5c4)ccc3c2)[nH]1 [Compound 19]	5.19	> 984	0.002	> 984	0.471	0.003							
CC[C@H](C)[C@H](NC(=O)OC)C(=O)N1CCC[C@H]1c1nc2cc(-c3ccc4cc(-c5cnc([C@H]6CCCN6C(=O)[C@@H](NC(=O)OC)[C@@H](C)OC)[nH]5)ccc4c3)ccc2[nH]1 [Compound 20]	336	8160	4.1	9410	324	2.3							
CC[C@H](C)[C@H](NC(=O)OC)C(=O)N1CCC[C@@H]1c1ncc(-c2ccc3cc(-c4ccc5[nH]c([C@@H]6CCCN6C(=O)[C@@H](NC(=O)OC)[C@@H](C)OC)nc5c4)ccc3c2)[nH]1 [Compound 21]	275	8160	2.9	9140	482	2.2							
